Experimental data reported in US20120029045A1, “METHOD FOR TREATING PORT WINE STAINS” (SHANGHAI FUDAN-ZHANGJIANG BIO-PHARMACEUTICAL CO., LTD., priority 2010, published 2012).

Key:
port wine stain lesion = test: PDT for PWS, therapeutic effect assessment; assay type: in vivo, human
Experimental: The effectiveness of PWS treatment with […] is categorized as being Excellent (I), Good (II), Effective (III) or Ineffective (IV). […] [table] A solution of 1 ml saline was injected in the superficial vein (e.g. median cubital vein) of patients to ensure no liquid leaked into tissues adjacent to the blood vessels into which the injection was made. At the same site, HMME was injected intravenously for 20 minutes with a constant flow rate by using an infusion pump. The doses applied were 2.5 mg/kg body weight or 5.0 mg/kg body weight. Next, 2-4 ml of saline solution was again injected to prevent the drugs from aggregating locally. Irradiation with KTP532 laser was then applied to the patient's lesion site 0-10 minutes after the start of injection, for a total duration of irradiation of either 20 minutes (denoted as the 20 min group), or 30 minutes (denoted as the 30 minute group). […] When irradiation was started immediately after the start of injection, the overlap between the injection and irradiation was about 20 minutes, when irradiation started 5 minutes after the start of injection, the overlap between drug injection and light irradiation was approximately 15 minutes, and when irradiation was started 10 minutes after the start of injection, the overlap was about 10 minutes. The therapeutic results were measured 8 weeks after the treatment. A dose of 5.0 mg/kg body weight of the poryphin based drug was injected, total irradiation durations were 20 min and 30 min respectively, and the effects and adverse effects were assessed. In this example doses of 2.5 and 5.0 mg/kg body weight respectively, were applied, the patient was irradiated for 20 min, and the therapeutic effects and the adverse effects were assessed.

[1] = Pharmacokinetics of HMME in human body; assay type: in vivo
Experimental: Porphyrin-based photosensitizing drugs were injected intravenously at a dose of 2.5 and 5.0 mg/kg body weight for 20 minutes with a constant flow rate, and the pharmokinetics measured. Blood samples were taken at 5, 10, 20, 25, 30, 40, 50, 80, 110, 140, 200, 260 and 380 minutes separately to measure the serum concentrations of porphyrin-based photosensitizing drugs.

[2] = 5.0 mg/kg, irradiation 20 min, 8 weeks after treatment
[3] = 5.0 mg/kg, irradiation 30 min, 8 weeks after treatment
[4] = Part B, 2.5 mg/kg group, irradiated 20 min, 8 weeks after treatment
[5] = Part B, 2.5 mg/kg group, irradiated 20 min, 8 weeks after treatment, 2.5 mg/kg
[6] = Part B, 5.0 mg/kg group, irradiated 20 min, 8 weeks after treatment
[7] = Part B, Purple type PWS, 2.5 mg/kg group, irradiated 20 min
[8] = Part B, Purple type PWS, 5.0 mg/kg group, irradiated 20 min
[9] = Part B, Red type PWS, 2.5 mg/kg group, irradiated 20 min
[10] = Part B, Red type PWS, 5.0 mg/kg group, irradiated 20 min
[11] = Part B, Thickening type PWS, 2.5 mg/kg group, irradiated 20 min
[12] = Part B, Thickening type PWS, 5.0 mg/kg group, irradiated 20 min
[13] = Purple type PWS, 5.0 mg/kg, irradiation 20 min
[14] = Purple type PWS, 5.0 mg/kg, irradiation 30 min
[15] = Red type PWS, 5.0 mg/kg, irradiation 20 min
[16] = Red type PWS, 5.0 mg/kg, irradiation 30 min
[17] = Thickening type PWS, 5.0 mg/kg, irradiation 20 min
[18] = Thickening type PWS, 5.0 mg/kg, irradiation 30 min
[19] = 2.5 mg/kg iv over 20 min at constant flow rate
[20] = 5.0 mg/kg iv over 20 min at constant flow rate

## hematoporphyrin monomethyl ether [HMME]
Port wine stain lesion; [2]
  Excellent (cases): 2
  Excellent rate %: 10.0%
  Good (cases): 9
  Ineffective (cases): 4
  Moderate (cases): 5
  Response rate %: 80.0%
  Significant response rate %: 55.0%
Port wine stain lesion; [3]
  Excellent (cases): 7
  Excellent rate %: 36.8%
  Good (cases): 8
  Ineffective (cases): 1
  Moderate (cases): 3
  Response rate %: 94.7%
  Significant response rate %: 78.9%
Port wine stain lesion; [4]
  Excellent (cases): 0
  Good (cases): 1
  Ineffective (cases): 24
  Moderate (cases): 15
  Significant response rate %: 2.5%
Port wine stain lesion; [5]
  Excellent rate %: 0%
  Response rate %: 40%
Port wine stain lesion; [6]
  Excellent (cases): 2
  Excellent rate %: 5.0%
  Good (cases): 14
  Ineffective (cases): 10
  Moderate (cases): 14
  Response rate %: 75.0%
  Significant response rate %: 40.0%
Port wine stain lesion; [7]
  Excellent (cases): 0
  Excellent rate %: 0.0%
  Good (cases): 0
  Ineffective (cases): 14
  Moderate (cases): 3
  Response rate %: 17.6%
  Significant response rate %: 0.0%
Port wine stain lesion; [8]
  Excellent (cases): 0
  Excellent rate %: 0.0%
  Good (cases): 7
  Ineffective (cases): 8
  Moderate (cases): 9
  Response rate %: 66.7%
  Significant response rate %: 29.2%
Port wine stain lesion; [9]
  Excellent (cases): 0
  Excellent rate %: 0.0%
  Good (cases): 1
  Ineffective (cases): 7
  Moderate (cases): 8
  Response rate %: 56.3%
  Significant response rate %: 6.3%
Port wine stain lesion; [10]
  Excellent (cases): 2
  Excellent rate %: 14.3%
  Good (cases): 7
  Ineffective (cases): 1
  Moderate (cases): 4
  Response rate %: 92.9%
  Significant response rate %: 64.3%
Port wine stain lesion; [11]
  Excellent (cases): 0
  Excellent rate %: 0/7
  Good (cases): 0
  Ineffective (cases): 3
  Moderate (cases): 4
  Response rate %: 4/7
  Significant response rate %: 0/7
Port wine stain lesion; [12]
  Excellent (cases): 0
  Excellent rate %: 0/2
  Good (cases): 0
  Ineffective (cases): 1
  Moderate (cases): 1
  Response rate %: 1/2
  Significant response rate %: 0/2
Port wine stain lesion; [13]
  Excellent (cases): 0
  Excellent rate %: 0/0
  Good (cases): 2
  Ineffective (cases): 1
  Moderate (cases): 3
  Response rate %: 5/6
  Significant response rate %: 2/6
Port wine stain lesion; [14]
  Excellent (cases): 1
  Excellent rate %: 1/8
  Good (cases): 5
  Ineffective (cases): 0
  Moderate (cases): 2
  Response rate %: 8/8
  Significant response rate %: 6/8
Port wine stain lesion; [15]
  Excellent (cases): 2
  Excellent rate %: 2/11
  Good (cases): 7
  Ineffective (cases): 0
  Moderate (cases): 2
  Response rate %: 11/11
  Significant response rate %: 9/11
Port wine stain lesion; [16]
  Excellent (cases): 6
  Excellent rate %: 6/10
  Good (cases): 2
  Ineffective (cases): 1
  Moderate (cases): 1
  Response rate %: 9/10
  Significant response rate %: 8/10
Port wine stain lesion; [17]
  Excellent (cases): 0
  Excellent rate %: 0/0
  Good (cases): 0
  Ineffective (cases): 3
  Moderate (cases): 0
  Response rate %: 0/0
  Significant response rate %: 0/0
Port wine stain lesion; [18]
  Excellent (cases): 0
  Excellent rate %: 0/0
  Good (cases): 1
  Ineffective (cases): 0
  Moderate (cases): 0
  Response rate %: 1/1
  Significant response rate %: 1/1
[1]; [19]
  AUC0˜n: 6342 ± 2824 ng·h/mL
  Cmax: 17491 ± 7045 ng/mL
  t1/2: 1.26 ± 0.33 h
[1]; [20]
  AUC0˜n: 17531 ± 3467 ng·h/mL
  Cmax: 35724 ± 4539 ng/mL
  t1/2: 1.31 ± 0.33 h
